What was measured:
α-synuclein = biological target: T1, α-synuclein (Homo sapiens, UniProt P37840, A53T); test: Thioflavin T binding assay of α-synuclein aggregation; assay type: biochemical; conditions: α-synuclein 2 mg/ml, 24 hrs at 37° C., scyllo-inositol 1:20 ratio by weight
T1 construct: made in house; host or cells: E. coli
Protocol: (§1) α-Synuclein will be purified from E. coli expressing the native and the aggregation prone A53T mutant proteins via chromatography on a Q-sepharose column.[10, 12] Recombinant α-synuclein spontaneously aggregates into fibers upon incubation at high concentrations 2 mg/ml. To assay the α-synuclein aggregation the proteins will then be incubated at 37° C. (50 mM Tris, pH 7.5) with shaking in the presence and absence of the inositols in varying ratios from 1:1 to 1:100 protein:inositol. The products of these incubations will be evaluated with the biophysical techniques discussed below.
Fluorimetry. Fluorescent probes are exceptionally useful to follow the aggregation kinetics of proteins. Two fluorescent probes, Thioflavin T (ThT) and 1-Anilinonaphthalene-8-sulfonic acid (ANS) are the most commonly used probes for α-synuclein. […] Thus, the amyloid fibrils formed from the proteins used in these studies bind ThT and binding is monitored by an increase in fluorescence intensity. Oligomers other than the amyloid fibrils can also have significant β-sheet character and bind ThT. ANS binds to hydrophobic unstructured proteins and is complementary to ThT fluorescence assays. Upon binding in a hydrophobic environment ANS undergoes an increase in quantum yield and a blue shift in its fluorescence emission maximum.

[1] = biological target: T2, A53T mutant of α-synuclein (Homo sapiens, UniProt P37840, A53T); test: Negative stain electron microscopy of α-synuclein fibre formation; assay type: biochemical
T2 construct: made in house; host or cells: E. coli
Protocol: as §1, with “below. Negative stain electron microscopy is an excellent tool to examine the gross morphology of the protein aggregates formed. Samples will be examined as a function of time and scyllo-inositol concentrations.” for “below.”

Aβ peptide fibrils = conditions: stated as previously shown; cited from earlier work

Compound: O[C@H]1[C@H](O)[C@@H](O)[C@H](O)[C@@H](O)[C@@H]1O [scyllo-inositol]
- Thioflavin T fluorescence (FIG. 2) (α-synuclein): fluorescence increases upon short incubations with scyllo-inositol and the fluorescence decreases with time
- aggregates produced (negative stain EM, FIG. 1) ([1]; A53T mutant, after 24 hours of incubation at 37° C., without compound: characteristic α-synuclein fibrils): a few thin fibrils with the majority of the visible protein being present as amorphous aggregates
- α-synuclein fibres formed (negative stain electron microscopy, FIG. 1 legend) ([1]; α-synuclein 2 mg/ml, scyllo-inositol 1:20 ratio by weight, 2 days at 37° C., alone: long mature fibres): only small aggregates could be detected
- disaggregation of preformed Aβ peptide fibrils (Aβ peptide fibrils): able to disaggregate preformed Aβ peptide fibrils
